The results in this text go back to article PMC6384781, “Design, Synthesis, Docking Studies and Monoamine Oxidase Inhibition of a Small Library of 1-acetyl- and 1-thiocarbamoyl-3,5-diphenyl-4,5-dihydro-(1H)-pyrazoles” (Molecules, 2019).

One data set concerns the target T1, hMAO-A (Homo sapiens, UniProt P21397).
T1 construct: purchased Sigma-Aldrich; host or cells: insect cells (microsomes)
T1 sequence (P21397 1-527): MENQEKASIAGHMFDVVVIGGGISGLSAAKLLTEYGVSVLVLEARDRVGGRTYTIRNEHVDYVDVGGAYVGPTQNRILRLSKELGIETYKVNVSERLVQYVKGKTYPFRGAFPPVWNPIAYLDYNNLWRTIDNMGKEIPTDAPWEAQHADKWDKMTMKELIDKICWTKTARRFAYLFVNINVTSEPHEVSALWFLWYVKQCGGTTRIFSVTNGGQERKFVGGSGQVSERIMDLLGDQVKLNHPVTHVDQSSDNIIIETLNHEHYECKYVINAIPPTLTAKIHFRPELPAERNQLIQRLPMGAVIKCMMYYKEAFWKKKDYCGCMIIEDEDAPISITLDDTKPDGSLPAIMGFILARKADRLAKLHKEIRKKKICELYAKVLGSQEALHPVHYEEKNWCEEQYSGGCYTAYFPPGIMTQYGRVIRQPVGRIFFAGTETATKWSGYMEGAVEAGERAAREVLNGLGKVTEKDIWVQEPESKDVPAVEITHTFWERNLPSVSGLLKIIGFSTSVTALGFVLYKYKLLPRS
Description: hMAO-A inhibition, Amplex Red fluorometric assay with kynuramine substrate. Type of data set: biochemical. Particulars: for IC50 / IC50 hMAO-A: recombinant hMAO-A, kynuramine 50 µM, mean ± SD of triplicate, max tested 100 µM; for fold difference of hMAO-A inhibition, (R)-enantiomer versus (S)-enantiomer: (R)- compared with (S)-enantiomer of the same compound. As to the method: (§1) The synthesized compounds P1–P18 were evaluated as hMAO inhibitors using the recombinant hMAOs as enzyme sources and kynuramine as substrate. A fluorometric method based on the Amplex® Red reagent (λex = 560 nm; λem = 590 nm) was used to measure hMAO activity. In this horseradish peroxidase-linked assay, Amplex® Red reacts with hydrogen peroxide that is produced by the MAO catalytic cycle to yield a fluorescent product, resorufin [28]. By thus recording the MAO-catalyzed formation of hydrogen peroxide in the presence of different concentrations of a test inhibitor, sigmoidal plots of enzyme activity versus the logarithm of inhibitor concentration were constructed from which IC50 values were estimated (GraphPad Prism 5). All IC50 values were measured in triplicate and are expressed as the mean ± standard deviation (SD). The inhibitory activities of compounds P1–P18 are summarized in Table 1 along with selectivity index (SI) values which are the ratio of IC50(hMAO-A)/IC50(hMAO-B). SI < 1 indicates selectivity for MAO-A, whereas SI > 1 indicates selectivity for the MAO-B isoform.
(§2) Microsomes from insect cells expressing recombinant hMAO-A or hMAO-B (5 mg protein/mL) served as enzyme sources, and were pre-aliquoted and stored at −70 °C. All enzymatic reactions were carried out to a final volume of 200 µL in black 96-well microtiter plates (Corning). Potassium phosphate buffer (100 mM, pH 7.4, made isotonic with KCl) served as reaction solvent. The reactions contained kynuramine (50 µM), various concentrations of the test inhibitor (0.003–100 μM), horseradish peroxidase (1 unit/mL) and Amplex® Red (200 µM). Stock solutions of the test inhibitors were prepared in DMSO and added to the reactions to yield a final concentration of 4% (v/v) DMSO. The reactions were initiated with the addition of hMAO-A (0.0075 mg protein/mL) or hMAO-B (0.015 mg protein/mL), and incubated at 37 °C for 20 min in a convection oven. At endpoint, the reactions were terminated with the addition of 10 μL pargyline (20 mM) and 10 μL (R)-deprenyl (5 mM) for hMAO-A and hMAO-B, respectively. The concentrations of resorufin in the reactions were determined by fluorescence spectrophotometry (λex = 560 nm, λem = 590 nm). Resorufin was quantitated with a linear calibration curve, which was constructed from standard solutions containing hydrogen peroxide (0.05–1.6 µM). Each standard was prepared to a final volume of 200 μL in potassium phosphate buffer and also contained horseradish peroxidase (1 unit/mL), Amplex® Red (200 µM), 4% DMSO as co-solvent, 10 μL pargyline (20 mM) for hMAO-A and 10 μL (R)-deprenyl (5 mM) for hMAO-B. The IC50 values were determined by constructing sigmoidal curves of MAO catalytic activity versus the logarithm of inhibitor concentration. For this purpose, the one site competition model incorporated into the Prism 5 software package (GraphPad, San Diego, CA, USA) was used. All experiments were carried out in triplicate and the IC50 values are expressed as mean ± standard deviation (SD).

Another data set has as its target T2, hMAO-B (Homo sapiens, UniProt P27338).
T2 construct: purchased Sigma-Aldrich; host or cells: insect cells (microsomes)
T2 sequence (P27338 1-520): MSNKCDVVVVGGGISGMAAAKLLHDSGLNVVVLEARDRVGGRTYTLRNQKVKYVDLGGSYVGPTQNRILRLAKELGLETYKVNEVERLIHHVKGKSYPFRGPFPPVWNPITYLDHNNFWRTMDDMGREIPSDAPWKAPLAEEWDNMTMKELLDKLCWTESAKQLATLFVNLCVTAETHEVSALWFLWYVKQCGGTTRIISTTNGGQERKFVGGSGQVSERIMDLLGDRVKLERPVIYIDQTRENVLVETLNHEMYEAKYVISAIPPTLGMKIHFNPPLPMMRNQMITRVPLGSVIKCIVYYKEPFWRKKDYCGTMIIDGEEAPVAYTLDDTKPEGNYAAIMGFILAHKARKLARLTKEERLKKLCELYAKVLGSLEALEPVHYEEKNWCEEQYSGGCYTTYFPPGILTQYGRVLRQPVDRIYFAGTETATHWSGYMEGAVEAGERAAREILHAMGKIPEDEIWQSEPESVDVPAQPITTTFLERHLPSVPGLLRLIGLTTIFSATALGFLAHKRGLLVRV
As to the kind of experiment: hMAO-B inhibition, Amplex Red fluorometric assay with kynuramine substrate. Format: biochemical. The note with it: for SI (selectivity index for the hMAO-B isoform): ratio IC50(hMAO-A)/IC50(hMAO-B), SI > 1 = MAO-B selective; for IC50 / IC50 hMAO-B: recombinant hMAO-B, kynuramine 50 µM, mean ± SD of triplicate, max tested 100 µM. As to the method:
as §1, §2

Take `CCCCOc1ccc(C2=NN(C(N)=S)[C@H](c3ccccc3)C2)cc1` [(S)-P4]: the IC50 on hMAO-A turned out to be 39.2 ± 2.15 µM. In addition, on hMAO-B, the “SI (selectivity index for the hMAO-B isoform)” value is recorded as 7.78 and the IC50 was 5.03 ± 0.88 µM.
As for `CC(C)=CCCC(C)=CCOc1ccc(C2=NN(C(N)=S)C(c3ccccc3)C2)cc1` (stereo not drawn) [Compound P6, 3-(4-((3,7-dimethylocta-2,6-dien-1-yl)oxy)phenyl)-5-phenyl-4,5-dihydro-1H-pyrazole-1-carbothioamide], on hMAO-A, the IC50 is over 100 µM and the “IC50 hMAO-A” value is recorded as “ineffective”. Further, on hMAO-B, the “SI (selectivity index for the hMAO-B isoform)” value is recorded as over 1.85 and the half-inhibitory concentration (IC50) amounted to 54.1 ± 7.54 µM.
For the compound `CC(=O)N1N=C(c2ccc(OCC=C(C)C)cc2)CC1c1ccc(-c2ccccc2)cc1` (stereo not drawn) [Compound P17], the melting point was in the range of 132 to 135 °C. For the same compound, at hMAO-A, the IC50 was over 100 µM and the “IC50 hMAO-A” value is “devoid of inhibition activity”. Also, on hMAO-B, the 50% inhibitory concentration (IC50) was over 100 µM and the “IC50 hMAO-B” value is reported as “devoid of inhibition activity”.
Take `COc1ccc(C2=NN(C(N)=S)[C@@H](c3ccccc3)C2)cc1` [(R)-P1]: the figures for the IC50 at hMAO-A and on hMAO-B were 50.6 ± 2.67 µM and over 100 µM, respectively. On hMAO-B, the “SI (selectivity index for the hMAO-B isoform)” value is under 0.51.
For the compound `CCOc1ccc(C2=NN(C(N)=S)[C@H](c3ccccc3)C2)cc1` [(S)-P2], the IC50 on hMAO-A was 32.3 ± 4.46 µM. In addition, on hMAO-B, the “SI (selectivity index for the hMAO-B isoform)” value is given as under 0.32 and the IC50 was over 100 µM.
In the case of `CC(=O)N1N=C(c2ccc(OCC=C(C)C)cc2)CC1c1ccc(Cl)cc1Cl` (stereo not drawn) [Compound P16, 1-(5-(2,4-dichlorophenyl)-3-(4-((3-methylbut-2-en-1-yl)oxy)phenyl)-4,5-dihydro-1H-pyrazol-1-yl)ethan-1-one], the melting point lay within 128 to 130 °C. In addition, at hMAO-A, the IC50 is over 100 µM and the “IC50 hMAO-A” value is given as “did not inhibit”. On hMAO-B, the IC50 is over 100 µM and the “IC50 hMAO-B” value is recorded as “did not inhibit”.
The compound `CC(=O)N1N=C(c2ccc(OCC=C(C)C)cc2)CC1c1ccccc1Cl` (stereo not drawn) [Compound P13, 1-(5-(2-chlorophenyl)-3-(4-((3-methylbut-2-en-1-yl)oxy)phenyl)-4,5-dihydro-1H-pyrazol-1-yl)ethan-1-one] showed a melting point of 131 to 134 °C. Besides, the IC50 on hMAO-A is 5.74 ± 1.66 µM. In addition, on hMAO-B, the “SI (selectivity index for the hMAO-B isoform)” value is 1.85 and the IC50 amounted to 3.11 ± 0.66 µM.
Take `COc1ccc(C2=NN(C(N)=S)[C@H](c3ccccc3)C2)cc1` [(S)-P1]: the IC50 on hMAO-A was found to be 46.6 ± 2.62 µM. Besides, at hMAO-B, the “SI (selectivity index for the hMAO-B isoform)” value is under 0.47 and the IC50 is over 100 µM.
For the compound `CC(=O)N1N=C(c2ccc(OCC=C(C)C)cc2)CC1c1ccc(Cl)cc1` (stereo not drawn) [Compound P15, 1-(5-(4-chlorophenyl)-3-(4-((3-methylbut-2-en-1-yl)oxy)phenyl)-4,5-dihydro-1H-pyrazol-1-yl)ethan-1-one], the IC50 at hMAO-A is 12.1 ± 0.14 µM. At hMAO-B, the “SI (selectivity index for the hMAO-B isoform)” value stood at 1.11 and the IC50 turned out to be 11 ± 3.56 µM.
`CCCOc1ccc(C2=NN(C(N)=S)[C@@H](c3ccccc3)C2)cc1` [(R)-P3]: the IC50 at hMAO-A amounted to 8 ± 0.83 µM. Moreover, at hMAO-B, the “SI (selectivity index for the hMAO-B isoform)” value turned out to be 2.89 and the IC50 was found to be 2.77 ± 0.39 µM.
As to `CC(=O)N1N=C(c2ccc(OCC=C(C)C)cc2)CC1c1cccc(Cl)c1` (stereo not drawn) [Compound P14, 1-(5-(3-chlorophenyl)-3-(4-((3-methylbut-2-en-1-yl)oxy)phenyl)-4,5-dihydro-1H-pyrazol-1-yl)ethan-1-one], the melting point was in the range of 85 to 88 °C. For the same compound, the IC50 on hMAO-A turned out to be 4.13 ± 0.26 µM. For the same compound, on hMAO-B, the “SI (selectivity index for the hMAO-B isoform)” value was 3.82 and the 50% inhibitory concentration (IC50) was 1.08 ± 0.05 µM.
On to `CCCOc1ccc(C2=NN(C(N)=S)[C@H](c3ccccc3)C2)cc1` [(S)-P3], for which the IC50 on hMAO-A came out at 9.59 ± 0.83 µM. Moreover, at hMAO-B, the “SI (selectivity index for the hMAO-B isoform)” value came to 0.23 and the IC50 is 42.5 ± 2.61 µM.
The compound `CC(=O)N1N=C(c2ccc(OCC=C(C)C)cc2)CC1c1cccc2ccccc12` (stereo not drawn) [Compound P18, 1-(3-(4-((3-methylbut-2-en-1-yl)oxy)phenyl)-5-(naphthalen-1-yl)-4,5-dihydro-1H-pyrazol-1-yl)ethan-1-one] showed a melting point of 78 to 80 °C. Also, at hMAO-A, the IC50 is over 100 µM and the “IC50 hMAO-A” value is given as “devoid of inhibition activity”. At hMAO-B, the IC50 was over 100 µM and the “IC50 hMAO-B” value is “devoid of inhibition activity”.
For the compound `CC(=O)N1N=C(c2ccc(OCC=C(C)C)cc2)CC1c1ccccc1` (stereo not drawn) [Compound P8], the half-maximal inhibitory concentration (IC50) at hMAO-A is over 100 µM. Moreover, at hMAO-B, the “SI (selectivity index for the hMAO-B isoform)” value was over 43.67 and the half-inhibitory concentration (IC50) stood at 2.29 ± 0.42 µM.
The like results for `CCCCCOc1ccc(C2=NN(C(N)=S)[C@H](c3ccccc3)C2)cc1` [(S)-P5] were, in that order, 55.2 ± 2.72 µM, 19.77 and 2.79 ± 0.87 µM.
With `CCCCOc1ccc(C2=NN(C(N)=S)[C@@H](c3ccccc3)C2)cc1` [(R)-P4], at hMAO-A, the “fold difference of hMAO-A inhibition, (R)-enantiomer versus (S)-enantiomer” value is 10 fold and the IC50 worked out at 3.63 ± 0.5 µM. On hMAO-B, the “SI (selectivity index for the hMAO-B isoform)” value was 9.55 and the IC50 amounted to 0.38 ± 0.06 µM.
On to `CCCCCOc1ccc(C2=NN(C(N)=S)[C@@H](c3ccccc3)C2)cc1` [(R)-P5], for which, on hMAO-A, the “fold difference of hMAO-A inhibition, (R)-enantiomer versus (S)-enantiomer” value is 18 fold and the IC50 is 3.03 ± 0.6 µM. The “fold higher hMAO-B inhibitory activity, (R)-enantiomer versus (S)-enantiomer” value on hMAO-B ((R)- compared with (S)-enantiomer of the same compound) is 6 fold. Further, on hMAO-B, the “SI (selectivity index for the hMAO-B isoform)” value came to 6.89 and the IC50 came to 0.44 ± 0.028 µM.
`CC(=O)N1N=C(c2ccc(OCC=C(C)C)cc2)CC1c1ccc(C)cc1` (stereo not drawn) [Compound P11, 1-(3-(4-((3-methylbut-2-en-1-yl)oxy)phenyl)-5-(p-tolyl)-4,5-dihydro-1H-pyrazol-1-yl)ethan-1-one]: the IC50 is over 100 µM on hMAO-A and 12.2 ± 0.71 µM at hMAO-B. Also, at hMAO-B, the “SI (selectivity index for the hMAO-B isoform)” value is reported as over 8.19.
For the compound `CCOc1ccc(C2=NN(C(N)=S)[C@@H](c3ccccc3)C2)cc1` [(R)-P2], the figures for the 50% inhibitory concentration (IC50) at hMAO-A and on hMAO-B were 33.9 ± 1.29 µM and over 100 µM, respectively. Besides, the “SI (selectivity index for the hMAO-B isoform)” value at hMAO-B is under 0.34.

For orientation: IC50 means the concentration at which inhibition is half-maximal. The term melting point denotes the temperature of the solid-liquid transition.
